One assay deals with L929. As to the kind of experiment: Cytotoxicity against mouse L929 cells assessed as cell viability after 72 hrs by MTT assay. The class given is ADME, cell-based. As to conditions: L929, 72 h. A general note: Tetrazolium dyes change colour on reduction, which living cells bring about.
The next assay concerns V79. Kind of assay: Cytotoxicity against chinese hamster V79 cells assessed as cell viability after 72 hrs by MTT assay. The class given is cell-based. Conditions: Cricetulus griseus, V79, 72 h.
In the next assay the test system is PBMC. As to the kind of experiment: Cytotoxicity against human PBMC assessed as cell viability after 72 hrs by MTT assay. The class given is cell-based.
Assay [1] in a line: Cytotoxicity against human Hs578T cells assessed as cell viability after 72 hrs by MTT assay. The format is functional, cell-based. As to conditions: Hs-578T.
A further assay concerns MX1. As to the kind of experiment: Cytotoxicity against human MX1 cells assessed as cell viability after 72 hrs by MTT assay. The class given is functional, cell-based. As to conditions: MX1, 72 h.
In the next assay the test system is MCF7. Kind of assay: Cytotoxicity against human MCF7 cells assessed as cell viability after 72 hrs by MTT assay. The format is functional, cell-based. As to conditions: MCF7, 72 h.
In the next assay the test system is DU-145. As to the kind of experiment: Cytotoxicity against human DU145 cells assessed as cell viability after 72 hrs by MTT assay. The format is functional, cell-based. As to conditions: DU-145, 72 h.
The test system of another assay is PC-3. As to the kind of experiment: Cytotoxicity against human PC3 cells assessed as cell viability after 72 hrs by MTT assay. The class given is functional, cell-based. Conditions: PC-3, 72 h.
In a further assay the test system is HCT-116. As to the kind of experiment: Cytotoxicity against human HCT116 cells assessed as cell viability after 72 hrs by MTT assay. The class given is functional, cell-based. As to conditions: HCT-116, 72 h.
Assay [2] can be described thus: Cytotoxicity against human HCT8 cells assessed as cell viability after 72 hrs by MTT assay. The format is functional, cell-based. As to conditions: HCT-8, 72 h.
Another assay has as its system MDA-MB-435. Kind of assay: Cytotoxicity against human MDA-MB-435 cells assessed as cell viability after 72 hrs by MTT assay. The class given is functional, cell-based. Conditions: MDA-MB-435, 72 h.
Another assay deals with SF-295. Kind of assay: Cytotoxicity against human SF295 cells assessed as cell viability after 72 hrs by MTT assay. The format is functional, cell-based. As to conditions: SF-295, 72 h.
In a further assay the test system is OVCAR-8. As to the kind of experiment: Cytotoxicity against human OVCAR8 cells assessed as cell viability after 72 hrs by MTT assay. The class given is functional, cell-based. Conditions: OVCAR-8, 72 h.
The test system of another assay is HL-60. As to the kind of experiment: Cytotoxicity against human HL60 cells assessed as cell viability after 72 hrs by MTT assay. The class given is functional, cell-based. Conditions: HL-60, 72 h.

SMILES strings stand for the structures. A value given as a limit tells only on which side of the number the result lay.

The record followed here is ChEMBL document CHEMBL3112408, “1,2,3-triazole-, arylamino- and thio-substituted 1,4-naphthoquinones: potent antitumor activity, electrochemical aspects, and bioisosteric replacement of C-ring-modified lapachones” (Bioorg Med Chem, 2014).

What is called IC50 is the concentration that gives 50% inhibition.

As to `O=C1C=C(NCc2cn(C3=CC(=O)c4ccccc4C3=O)nn2)C(=O)c2ccccc21`, the IC50 in the assay on L929 was 5.21 µM; in the assay on V79, 6.21 µM; in the assay with PBMC it was 6.77 µM; in [1], 5.68 µM; in the assay on MX1, 3.7 µM; with MCF7, 3.67 µM. The IC50 in the assay on DU-145 is 5.34 µM; with PC-3 it was 5.02 µM; in the assay with HCT-116, over 12 µM; in [2] it was 2.7 µM; in the assay on MDA-MB-435, 3.09 µM; with SF-295 it was 3.82 µM. Also, the half-inhibitory concentration (IC50) with OVCAR-8 was 2.86 µM; in the assay on HL-60, 0.8 µM.
Turning to `CC1(C)CC(Nc2ccc(Br)cc2)C2=C(O1)C(=O)c1ccccc1C2=O` (stereo unspecified), the half-maximal inhibitory concentration (IC50) was 2.38 µM in the assay on L929; 2.55 µM in the assay on V79; 2.89 µM with PBMC; 6.4 µM in assay [1]; 6.33 µM in the assay on MX1; 4.97 µM in the assay on MCF7. Also, the IC50 in the assay on DU-145 was 6.72 µM; in the assay on PC-3, 5.41 µM; in the assay with HCT-116, 5.84 µM; in assay [2], 5.31 µM; in the assay with MDA-MB-435, 5.24 µM; in the assay with SF-295, 6.38 µM. Moreover, the IC50 with OVCAR-8 was determined as 5.53 µM; in the assay on HL-60 it was 4.73 µM.
For `O=C1C=C(NCc2cn(CN3C(=O)c4ccccc4C3=O)nn2)C(=O)c2ccccc21`, the IC50 (in the assay with L929; with V79; in the assay on PBMC; in [1]; in the assay on MX1; in the assay on MCF7) was over 12 µM each time. Besides, the IC50 (with DU-145; in the assay with PC-3; in the assay on HCT-116; in assay [2]; with MDA-MB-435; in the assay on SF-295) was over 12 µM throughout. Also, the IC50 in the assay on OVCAR-8 and in the assay with HL-60 was over 12 µM throughout.
Consider `CC1(C)OC2=C(C(=O)c3ccccc3C2=O)C1n1cc(-c2ccccc2)nn1` (stereo unspecified), for which the 50% inhibitory concentration (IC50) with L929 was determined as 8.4 µM; in the assay with V79 it was 7.62 µM; in the assay on PBMC, 8.02 µM; in assay [1] it was 5.76 µM; in the assay with MX1, 5.92 µM; in the assay on MCF7, 6.95 µM. Further, the IC50 in the assay with DU-145 was 4.68 µM; in the assay on PC-3, 5.82 µM; in the assay on HCT-116, 8.27 µM; in assay [2], 9.07 µM; in the assay with MDA-MB-435, 4.95 µM; in the assay with SF-295 it was 3.44 µM. The IC50 in the assay on OVCAR-8 was 7.22 µM; with HL-60, 4.34 µM.
